Like-named read-outs stand apart in the source and are kept apart here. Blank lines part the entries; values can stand above or below the molecule they belong to. Bridge positions count the residues as written; N and C are the ends. Square brackets hold non-standard residues; d marks the D form. Peptide text beside a SMILES is read from it. hArg = N=C(N)NCCCC[C@H](N)C(=O)O
Columns and labels:
[1] = target: T1, PPIA (Homo sapiens, UniProt P62937); assay: KD determination of cyclic peptides derived from Formula (I); type: binding
[2] = target: T1, PPIA; settings: read-out: KD, binds and sequesters cytosolic PPIA; cited from earlier work
[3] = target: T2, CAPN1 (Mus musculus, UniProt O35350); assay: Calpain activity assay (Suc-LLVY-AMC cleavage) in HL-1 cells under Ca2+ overload; type: cell-based
T2 construct: endogenous in cells; host or cells: HL-1 cardiomyocytes
T2 sequence (O35350 1-713): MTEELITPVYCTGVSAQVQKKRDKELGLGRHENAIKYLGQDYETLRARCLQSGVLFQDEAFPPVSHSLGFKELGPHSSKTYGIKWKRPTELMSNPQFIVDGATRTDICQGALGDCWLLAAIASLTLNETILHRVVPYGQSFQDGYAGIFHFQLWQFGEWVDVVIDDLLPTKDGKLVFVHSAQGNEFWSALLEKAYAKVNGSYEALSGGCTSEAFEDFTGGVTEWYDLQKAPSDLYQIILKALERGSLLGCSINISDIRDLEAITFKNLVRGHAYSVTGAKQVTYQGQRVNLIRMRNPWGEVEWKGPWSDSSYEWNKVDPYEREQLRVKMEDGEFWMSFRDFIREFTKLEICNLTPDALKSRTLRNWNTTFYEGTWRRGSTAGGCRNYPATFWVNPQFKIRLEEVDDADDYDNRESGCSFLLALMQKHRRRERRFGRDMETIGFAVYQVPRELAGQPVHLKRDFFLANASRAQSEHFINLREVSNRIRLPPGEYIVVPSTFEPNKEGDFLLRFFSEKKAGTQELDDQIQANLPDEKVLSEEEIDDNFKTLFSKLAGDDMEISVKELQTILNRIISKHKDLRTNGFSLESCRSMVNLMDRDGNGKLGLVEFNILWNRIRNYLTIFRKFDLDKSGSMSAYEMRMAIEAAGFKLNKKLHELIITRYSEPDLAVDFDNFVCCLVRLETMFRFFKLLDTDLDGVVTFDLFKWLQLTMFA
T2 sequence (O88456 1-268 partner): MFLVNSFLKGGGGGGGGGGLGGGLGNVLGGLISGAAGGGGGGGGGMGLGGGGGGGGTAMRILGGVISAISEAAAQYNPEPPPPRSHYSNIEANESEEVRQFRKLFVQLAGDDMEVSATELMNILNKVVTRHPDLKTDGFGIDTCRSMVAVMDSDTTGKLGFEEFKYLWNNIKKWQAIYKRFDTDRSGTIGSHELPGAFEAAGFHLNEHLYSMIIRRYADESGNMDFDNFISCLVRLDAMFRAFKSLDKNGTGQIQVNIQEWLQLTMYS
Protocol: Calcium (Ca^2+) Overload Protocol: Rapid and sustained intracellular Ca^2+ overload was obtained by adding the Ca^2+-ionophore, calcimycin (1 μM), to HL-1 cells incubated for 10 min in HBS KV medium (1.26 mM CaCl2, 0.81 mM MgSO4, 0.44 mM KH2PO4, 142 mM KCl, 0.27 mM K2HPO4, 5.55 mM D-glucose, 1 mM Na3VO4, 20 mM Hepes pH 7.4). To monitor intracellular Ca^2+ variations, HL-1 cells were loaded with 5 μM Fluo-4 FF AM (Molecular Probes) in HBS Na (Sigma) for 30 min before the media was replaced with HBS KV. […] Calpain (CAPN) Activity Assay: […] HL-1 cells were grown in 24-well plates and incubated for 30 min in HBS Na (Sigma) with 25 μM Suc-LLVY-AMC (SEQ ID NO: 81) and 0.01% pluronic F127 (Molecular Probes) before treatment protocols. […] CAPN activity was inhibited via the addition of either calpeptin (Tocris) or PD150606 (Calbiochem) in the incubation medium.

[4] = test system: HL-1 cells; assay: Cell viability assay (LDH release) in HL-1 cells under Ca2+ overload; type: cell-based, mouse
Protocol: Calcium (Ca^2+) Overload Protocol: Rapid and sustained intracellular Ca^2+ overload was obtained by adding the Ca^2+-ionophore, calcimycin (1 μM), to HL-1 cells incubated for 10 min in HBS KV medium (1.26 mM CaCl2, 0.81 mM MgSO4, 0.44 mM KH2PO4, 142 mM KCl, 0.27 mM K2HPO4, 5.55 mM D-glucose, 1 mM Na3VO4, 20 mM Hepes pH 7.4). To monitor intracellular Ca^2+ variations, HL-1 cells were loaded with 5 μM Fluo-4 FF AM (Molecular Probes) in HBS Na (Sigma) for 30 min before the media was replaced with HBS KV. […] Cell Viability Assay: HL-1 plasma membrane integrity was assessed by measuring lactate dehydrogenase (LDH) release in the culture supernatant. An enzymatic assay evaluated LDH activity. Samples of the cell-free culture supernatant were collected at indicated times in Figures/Figure Legends, while cells were lysed in 1% (w/v) Triton X-100 at the end of each experiment to estimate the remaining cellular content of LDH. The LDH activity at each time point was expressed as a percentage of total LDH activity.

[5] = test system: HL-1 cells; assay: Intracellular Ca2+ (Fluo4 FF fluorescence) in HL-1 cells; type: cell-based, mouse; settings: Calcimycin 1 μM in HBS KV medium
Protocol: (§1) Calcium (Ca^2+) Overload Protocol: Rapid and sustained intracellular Ca^2+ overload was obtained by adding the Ca^2+-ionophore, calcimycin (1 μM), to HL-1 cells incubated for 10 min in HBS KV medium (1.26 mM CaCl2, 0.81 mM MgSO4, 0.44 mM KH2PO4, 142 mM KCl, 0.27 mM K2HPO4, 5.55 mM D-glucose, 1 mM Na3VO4, 20 mM Hepes pH 7.4). To monitor intracellular Ca^2+ variations, HL-1 cells were loaded with 5 μM Fluo-4 FF AM (Molecular Probes) in HBS Na (Sigma) for 30 min before the media was replaced with HBS KV.

[6] = target: T2, CAPN1; assay: Western blot of CAPN1 in purified mitochondria from HL-1 cells under Ca2+ overload; type: cell-based; settings: Ca2+ overload (HBS KVC), calpeptin 50 μM, PD150606 10 μM
Protocol: as §1, with “KV. The fluorescence was recorded using a fluorimeter plate reader (Fluoroskan Ascent Labsystem) at wavelength settings of 485/530 nm for excitation/emission, respectively.” for “KV.”
Mitochondria Isolation Protocol: Mitochondria were isolated from HL-1 cells in percoll density gradient. Briefly, 30×10^6 adherent cells were harvested with Trypsin/EDTA, centrifuged at 500×g for 10 min, washed in buffer A (100 mM sucrose, 1 mM EGTA, 20 mM MOPS, pH 7.4, and 1 mg/mL BSA) before cell disruption with a Dounce homogenizer. The suspension was centrifuged twice at 500× g for 5 min and the resulting supernatant at 10,000×g for 10 min at 4° C. The pellet was re-suspended in buffer B (300 mM sucrose, 1 mM EGTA, 20 mM MOPS pH 7.4, 1 mg/mL BSA), and the homogenate was layered on a two-phase (25% and 40%) percoll density gradient. […]

[7] = test system: HL-1 cells; assay: Mitochondrial membrane potential (JC-1) assay in HL-1 cells; type: cell-based, mouse; settings: Calcimycin 1 μM in HBS KV medium
Protocol: Calcium (Ca^2+) Overload Protocol: Rapid and sustained intracellular Ca^2+ overload was obtained by adding the Ca^2+-ionophore, calcimycin (1 μM), to HL-1 cells incubated for 10 min in HBS KV medium (1.26 mM CaCl2, 0.81 mM MgSO4, 0.44 mM KH2PO4, 142 mM KCl, 0.27 mM K2HPO4, 5.55 mM D-glucose, 1 mM Na3VO4, 20 mM Hepes pH 7.4). To monitor intracellular Ca^2+ variations, HL-1 cells were loaded with 5 μM Fluo-4 FF AM (Molecular Probes) in HBS Na (Sigma) for 30 min before the media was replaced with HBS KV. […] Mitochondrial Membrane Potential (MMP) Assay: MMP was determined using the potentiometric probe, JC-1. JC-1 (Molecular Probes) is a cationic carbocyanine dye that selectively accumulates in polarized mitochondria, where it forms red fluorescent aggregates (excitation 485/emission 590 nm). Upon mitochondrial depolarization, JC-1 is released into the cytosol, whereas a monomer emits green fluorescence (excitation 485 nm/emission 520 nm). Therefore, MMP variations were monitored as the ratio of fluorescent emissions at 590/520 nm using a fluorimeter plate reader (Fluoroskan Ascent Labsystem). HL-1 cells were incubated with JC-1 (1.5 μM) for 30 min at 37° C. in HBS Na before treatment protocols.

[8] = Ca2+ overload in HBS KV medium, 5 mM EGTA in incubation media
[9] = Calcimycin 1 μM in HBS KV medium, dose-dependent response

T1 sequence (P62937 whole entry, species assumed): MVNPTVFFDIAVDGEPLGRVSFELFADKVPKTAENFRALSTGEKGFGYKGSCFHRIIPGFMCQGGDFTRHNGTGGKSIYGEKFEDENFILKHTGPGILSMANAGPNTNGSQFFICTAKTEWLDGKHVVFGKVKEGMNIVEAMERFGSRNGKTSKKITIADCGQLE

Kd [1]: > 1000 µM
Molecule: CC[C@H](C)[C@@H]1NC(=O)[C@@H](N)CSSC[C@@H](C(N)=O)NC(=O)[C@H](C(C)C)NC(=O)[C@H](CCCCNC(=N)N)NC(=O)[C@H](CCCNC(=N)N)NC(=O)CNC(=O)[C@H](CC(=O)O)NC(=O)[C@H](CCCCN)NC(=O)[C@H](CC(C)C)NC(=O)[C@H](CCCCN)NC1=O [X8: hR] (H-CIKLKDGR[hArg]VC-NH2; disulfide 1-11)

Molecule: QSVGVSSGKLLIKLKDGRKVETDHI [AIF (370-394), Linear peptide, 25 amino acids long]
Kd [2]: 12 µM

Molecule: O=C(O)CN(CCOCCOCCN(CC(=O)O)CC(=O)O)CC(=O)O [EGTA]
CAPN1 activation [3, 8]: attenuated
cell death (LDH release) [4, 8]: attenuated

Kd [1]: > 1000 µM
Molecule: CC[C@H](C)[C@@H]1NC(=O)[C@@H](N)CSSC[C@@H](C(N)=O)NC(=O)[C@H](C(C)C)NC(=O)[C@H](CCCCN)NC(=O)[C@H](CCCNC(=N)N)NC(=O)CNC(=O)[C@H](CC(=O)O)NC(=O)[C@H](CCCCNC(=N)N)NC(=O)[C@H](CC(C)C)NC(=O)[C@H](CCCCN)NC1=O [X4: hR] (H-CIKL[hArg]DGRKVC-NH2; disulfide 1-11)

Molecule: O=C(O)/C(S)=C/c1ccc(I)cc1 [PD150606]
kinetics of cytosolic Ca2+ accumulation [5]: neither of them had an impact
mitochondrial CAPN1 translocation [6]: failed to prevent
Ca2+ overload-induced decrease in mitochondrial membrane potential (MMP) [7]: reduced ability to restore MMP
reduction in Ca2+ overload-induced CAPN1 substrate hydrolysis [3, 9]: ~60%
reduction in cell death (LDH release) [4, 9]: ~15%

Source: US20240109937A1, “BINDING PEPTIDES AND USES THEREOF” (The Johns Hopkins University, priority 2021, published 2024)
